Test results taken from the NIST ThermoML archive (doi:10.1016/j.fluid.2017.03.008).

Key:
[1] = refractive index (Na D-line) (dimensionless); xn = mol fraction of the nth substance listed; details: 101.3 kPa, Liquid, Standard Abbe refractometry
[2] = xn = mol fraction of the nth substance listed; details: for surface tension liquid-gas: Ring tensiometer; for viscosity / mass density: 101.3 kPa, Liquid; for viscosity: Capillary tube (Ostwald / Ubbelohde) method; for mass density: Vibrating tube method

C[P+](c1ccccc1)(c1ccccc1)c1ccccc1.[Br-] [methyltriphenylphosphonium bromide] + NCCO
Details | mass density, [2] [kg/m3] | refractive index, [1] | surface tension liquid-gas, [2] [mN/m] | viscosity, [2] [mPa·s]
298.15 K, x1 = 0.11 | 1092.9 | 1.50265 | 50.3 | 27.7
298.15 K, x1 = 0.13 | 1099.8 | 1.50587 | 50.2 | 28
298.15 K, x1 = 0.14 | 1107.4 | 1.51187 | 49.3 | 35.5
298.15 K, x1 = 0.16 | 1195.8 | 1.56644 | 48.9 | 128.9
308.15 K, x1 = 0.11 | 1085 | 1.49911 | 49.5 | 20
308.15 K, x1 = 0.13 | 1091.9 | 1.50221 | 49.3 | 20
308.15 K, x1 = 0.14 | 1100 | 1.50794 | 48.4 | 20.7
308.15 K, x1 = 0.16 | 1187.9 | 1.56247 | 48 | 84.9
318.15 K, x1 = 0.11 | 1077.1 | 1.49546 | 48.6 | 13.6
318.15 K, x1 = 0.13 | 1083.8 | 1.49935 | 48.2 | 13.1
318.15 K, x1 = 0.14 | 1092.2 | 1.50501 | 47.6 | 13.6
318.15 K, x1 = 0.16 | 1180.1 | 1.55846 | 47.2 | 37.9
328.15 K, x1 = 0.11 | 1068.9 | 1.49224 | 47.8 | 9.5
328.15 K, x1 = 0.13 | 1075.8 | 1.49519 | 47.2 | 9.1
328.15 K, x1 = 0.14 | 1084.2 | 1.50071 | 46.7 | 10
328.15 K, x1 = 0.16 | 1172.3 | 1.55518 | 46.4 | 25.4
338.15 K, x1 = 0.11 | 1060.8 | 1.48802 | 46.9 | 7
338.15 K, x1 = 0.13 | 1067.6 | 1.49063 | 46.3 | 6.9
338.15 K, x1 = 0.14 | 1076.1 | 1.49733 | 45.9 | 7.5
338.15 K, x1 = 0.16 | 1164.5 | 1.55159 | 45.6 | 15.6
348.15 K, x1 = 0.11 | 1052.7 | 1.48405 | 46.2 | 5.4
348.15 K, x1 = 0.13 | 1059.4 | 1.48631 | 45.3 | 5.4
348.15 K, x1 = 0.14 | 1068 | 1.49343 | 44.9 | 5.6
348.15 K, x1 = 0.16 | 1156.6 | 1.54699 | 44.8 | 10.7
358.15 K, x1 = 0.11 | 1044.7 | 1.47988 | 45.3 | 4.7
358.15 K, x1 = 0.13 | 1051.1 | 1.48215 | 44.4 | 4.8
358.15 K, x1 = 0.14 | 1059.8 | 1.49027 | 44.2 | 4.9
358.15 K, x1 = 0.16 | 1148.8 | 1.54286 | 44 | 9.1
